In ChEMBL document CHEMBL1201862, “PubChem BioAssay data set” (2004):
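48-hour exposure; five concentrations; linearly interpolated endpoints. At the GI50, growth is halved.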 The source made the active and inactive calls. Rule as the data show it: active = GI50 up to about 1.1 µM and inactive = higher.

Columns and labels:
Experiment in all cases: NCI-60 cell line screen, 48 h
786-0 = tested on: 786-0
ACHN = tested on: ACHN
DU-145 = tested on: DU-145
HCT-15 = tested on: HCT-15
IGROV-1 = tested on: IGROV-1
M14 = tested on: M14
MCF7 = tested on: MCF7
MDA-N = tested on: MDA-N
NCI-H23 = tested on: NCI-H23
NCI-H522 = tested on: NCI-H522
OVCAR-3 = tested on: OVCAR-3
OVCAR-4 = tested on: OVCAR-4
PC-3 = tested on: PC-3
SNB-75 = tested on: SNB-75
UACC-257 = tested on: UACC-257
UACC-62 = tested on: UACC-62
KM12 = tested on: KM12
SR = tested on: SR

| SMILES | GI50 (786-0) | GI50 (ACHN) | GI50 (DU-145) | GI50 (HCT-15) [µM] | GI50 (IGROV-1) | GI50 (M14) | GI50 (MCF7) | GI50 (MDA-N) | GI50 (NCI-H23) | GI50 (NCI-H522) | GI50 (OVCAR-3) | GI50 (OVCAR-4) | GI50 (PC-3) | GI50 (SNB-75) | GI50 (UACC-257) | GI50 (UACC-62) | GI50 (KM12) | GI50 (SR) |
| --- | --- | --- | --- | --- | --- | --- | --- | --- | --- | --- | --- | --- | --- | --- | --- | --- | --- | --- |
| OC1CSCCSCCCSCCSC1 | > 100 µM (inactive) | > 100 µM (inactive) | > 100 µM (inactive) | > 100 | > 100 µM (inactive) | > 100 µM (inactive) | > 100 µM (inactive) | > 100 µM (inactive) | > 100 µM (inactive) | > 100 µM (inactive) | > 100 µM (inactive) | > 100 µM (inactive) | > 100 µM (inactive) | > 100 µM (inactive) | > 100 µM (inactive) | > 100 µM (inactive) | – | – |
| Cc1ccc(-c2c(C#N)c(N)nc3c2CCS(=O)(=O)c2ccccc2-3)cc1 | 44.2 µM (inactive) | 52.4 µM (inactive) | 74.6 µM (inactive) | > 100 | 34.1 µM (inactive) | – | – | > 100 µM (inactive) | > 100 µM (inactive) | > 100 µM (inactive) | – | 40.6 µM (inactive) | 78.9 µM (inactive) | 20.6 µM (inactive) | 65 µM (inactive) | 57.3 µM (inactive) | > 100 µM (inactive) | – |
| O=C(Cc1ccccc1)NN1C(=O)/C(=C\c2ccc(O)cc2)S/C1=N\c1ccccc1 | > 100 µM (inactive) | > 100 µM (inactive) | > 100 µM (inactive) | > 100 | > 100 µM (inactive) | > 100 µM (inactive) | 84.1 µM (inactive) | > 100 µM (inactive) | > 100 µM (inactive) | – | > 100 µM (inactive) | > 100 µM (inactive) | – | 50.7 µM (inactive) | > 100 µM (inactive) | > 100 µM (inactive) | > 100 µM (inactive) | – |
| COc1cccc(C2SC(=N)Nc3c2c(C)nn3C(=O)Cc2ccccc2)c1 (stereo not drawn) | > 100 µM (inactive) | > 100 µM (inactive) | > 100 µM (inactive) | > 100 | > 100 µM (inactive) | > 100 µM (inactive) | 39.8 µM (inactive) | > 100 µM (inactive) | > 100 µM (inactive) | > 100 µM (inactive) | – | – | > 100 µM (inactive) | 51.5 µM (inactive) | > 100 µM (inactive) | > 100 µM (inactive) | > 100 µM (inactive) | > 100 µM (inactive) |
| CC(=O)N1OC(C)CC1Nc1ccc(Br)cc1 (stereo not drawn) | > 100 µM (inactive) | 0.415 µM (active) | 0.493 µM (active) | > 100 | > 100 µM (inactive) | 1.6 µM (inactive) | 21.5 µM (inactive) | 0.252 µM (active) | > 100 µM (inactive) | – | 82.4 µM (inactive) | – | 1.04 µM (active) | – | – | 88.3 µM (inactive) | 1.44 µM (inactive) | 1.42 µM (inactive) |
| O=Cc1cccc2ccc3ccccc3c12 | 17.5 µM (inactive) | 13.5 µM (inactive) | 22.4 µM (inactive) | 11.1 | – | 20 µM (inactive) | 14.4 µM (inactive) | 21.6 µM (inactive) | 25.1 µM (inactive) | 13.8 µM (inactive) | 12.9 µM (inactive) | – | 9.59 µM (inactive) | 7.35 µM (inactive) | 32 µM (inactive) | 28.1 µM (inactive) | 4.02 µM (inactive) | – |
| CCCCN(CC)c1nc(C)nc2c1c(C)c(C)n2-c1c(C)cc(C)cc1C [ANTALARMIN] | 16.5 µM (inactive) | 14.9 µM (inactive) | 16.6 µM (inactive) | 13.6 | 14.5 µM (inactive) | 17.9 µM (inactive) | – | 20.1 µM (inactive) | 14.5 µM (inactive) | 12.8 µM (inactive) | 13.3 µM (inactive) | 16.3 µM (inactive) | 13.5 µM (inactive) | 14.3 µM (inactive) | 13.3 µM (inactive) | – | 17.6 µM (inactive) | 8.45 µM (inactive) |
| Nc1c2c(=O)[nH]c(=O)c2c(N)c2c(=O)c3ccccc3c(=O)c12 | 2.69 µM (inactive) | 2.24 µM (inactive) | 1.56 µM (inactive) | 1.36 | 1.65 µM (inactive) | 0.243 µM (active) | 1.16 µM (inactive) | 0.212 µM (active) | 0.76 µM (active) | 3.35 µM (inactive) | 0.684 µM (active) | 1.21 µM (inactive) | 2.49 µM (inactive) | – | 1.69 µM (inactive) | 1.61 µM (inactive) | 1.83 µM (inactive) | 2.74 µM (inactive) |
| Cc1ccc(S(=O)(=O)NCCSCCNS(=O)(=O)c2ccc(C)cc2)cc1 | – | > 100 µM (inactive) | > 100 µM (inactive) | > 100 | – | > 100 µM (inactive) | > 100 µM (inactive) | > 100 µM (inactive) | > 100 µM (inactive) | > 100 µM (inactive) | > 100 µM (inactive) | > 100 µM (inactive) | > 100 µM (inactive) | > 100 µM (inactive) | > 100 µM (inactive) | – | > 100 µM (inactive) | > 100 µM (inactive) |
| COc1ccc2cc(/C=N\NC(=O)Nc3cccc4ccccc34)ccc2c1 | 12.9 µM (inactive) | 23.9 µM (inactive) | 58.2 µM (inactive) | 67.5 | 66.1 µM (inactive) | 33.4 µM (inactive) | 20.3 µM (inactive) | 42 µM (inactive) | 24.3 µM (inactive) | 80 µM (inactive) | – | 14.5 µM (inactive) | 33.7 µM (inactive) | 11.1 µM (inactive) | 32.4 µM (inactive) | – | 67 µM (inactive) | 16.1 µM (inactive) |
| CCCCOC(=O)NC(Nc1ccc(S(N)(=O)=O)cc1)(C(F)(F)F)C(F)(F)F | – | > 100 µM (inactive) | > 100 µM (inactive) | > 100 | – | > 100 µM (inactive) | > 100 µM (inactive) | – | > 100 µM (inactive) | > 100 µM (inactive) | > 100 µM (inactive) | – | – | > 100 µM (inactive) | > 100 µM (inactive) | > 100 µM (inactive) | > 100 µM (inactive) | > 100 µM (inactive) |
| CC(C)CCNC(=O)c1ccc(CNC(=O)/C=C/c2ccc(OCc3ccccc3)cc2)cc1 | > 100 µM (inactive) | > 100 µM (inactive) | > 100 µM (inactive) | > 100 | – | > 100 µM (inactive) | > 100 µM (inactive) | > 100 µM (inactive) | > 100 µM (inactive) | – | > 100 µM (inactive) | > 100 µM (inactive) | > 100 µM (inactive) | > 100 µM (inactive) | > 100 µM (inactive) | > 100 µM (inactive) | > 100 µM (inactive) | > 100 µM (inactive) |
| COc1cccc(Nc2nc(-c3cccs3)nc3ccc(Br)cc23)c1 | 33.3 µM (inactive) | > 100 µM (inactive) | > 100 µM (inactive) | > 100 | > 100 µM (inactive) | > 100 µM (inactive) | 12.7 µM (inactive) | – | 46 µM (inactive) | > 100 µM (inactive) | 36.6 µM (inactive) | – | 27.4 µM (inactive) | – | > 100 µM (inactive) | 66.2 µM (inactive) | 74 µM (inactive) | 1.48 µM (inactive) |
